Earlier results, collected in publication PMC4411882, “Developmental Potential for Endomorphin Opioidmimetic Drugs” (International Journal of Medicinal Chemistry, 2012).
Where a SMILES comes first, the peptide text is derived from it. [ ]: non-standard residue; d: D form. The star is where a group is joined. Dmt = Cc1cc(O)cc(C)c1C[CH](N)C(=O)O; NHPhenethyl = c1ccc(CCN*)cc1; NHPh = c1ccc(N*)cc1

Experiments:
δ-opioid receptor (MVD) = target: T1, δ-opioid receptor (MVD) (Mus musculus, UniProt P32300); parameters: species or system mouse vas deferens
T1 construct: gene Oprd1; mouse vas deferens (MVD) bioassay
Excerpt: (§1) Therefore, we substituted hydrophobic groups in lieu of the phenethyl group to develop the class of H-Dmt-Pro-Phe-NH-X ligands (Figure 1).

μ-opioid receptor (GPI) = target: T2, μ-opioid receptor (GPI) (Cavia porcellus, UniProt P97266); parameters: species or system guinea pig ileum
T2 construct: gene OPRM1; guinea pig ileum (GPI) bioassay
Excerpt: as §1

μ-opioid receptor = μ-opioid receptor (Rattus norvegicus, UniProt P33535); parameters: gene Oprm1; rat brain P2 synaptosomal preparations; species or system rat brain P2 synaptosomal preparations; conditions: read-out: Kiμ
δ-opioid receptor = δ-opioid receptor (Rattus norvegicus, UniProt P33533); parameters: gene Oprd1; rat brain P2 synaptosomal preparations; species or system rat brain P2 synaptosomal preparations; conditions: read-out: Kiδ
Sequence of δ-opioid receptor (P33533 whole entry): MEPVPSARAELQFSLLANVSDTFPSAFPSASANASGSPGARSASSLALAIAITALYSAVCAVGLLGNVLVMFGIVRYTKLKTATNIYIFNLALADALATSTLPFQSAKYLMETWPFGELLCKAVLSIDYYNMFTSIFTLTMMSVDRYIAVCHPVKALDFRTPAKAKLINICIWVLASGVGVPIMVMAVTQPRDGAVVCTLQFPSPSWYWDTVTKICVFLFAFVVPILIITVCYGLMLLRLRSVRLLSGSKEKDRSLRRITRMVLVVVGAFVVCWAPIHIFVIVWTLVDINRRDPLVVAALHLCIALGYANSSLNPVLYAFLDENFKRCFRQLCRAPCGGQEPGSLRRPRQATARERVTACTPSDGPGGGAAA

Sequence of μ-opioid receptor (P33535 whole entry): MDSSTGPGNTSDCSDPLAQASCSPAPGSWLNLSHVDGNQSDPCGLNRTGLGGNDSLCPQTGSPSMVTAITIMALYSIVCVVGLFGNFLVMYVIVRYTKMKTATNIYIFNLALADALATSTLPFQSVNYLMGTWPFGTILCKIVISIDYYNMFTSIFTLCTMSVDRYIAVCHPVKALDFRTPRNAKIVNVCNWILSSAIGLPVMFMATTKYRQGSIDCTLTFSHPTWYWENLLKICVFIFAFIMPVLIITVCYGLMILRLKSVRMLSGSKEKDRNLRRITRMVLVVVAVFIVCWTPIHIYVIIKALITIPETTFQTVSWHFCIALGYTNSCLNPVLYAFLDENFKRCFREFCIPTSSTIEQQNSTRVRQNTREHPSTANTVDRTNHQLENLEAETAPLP
T1 sequence (P32300 whole entry): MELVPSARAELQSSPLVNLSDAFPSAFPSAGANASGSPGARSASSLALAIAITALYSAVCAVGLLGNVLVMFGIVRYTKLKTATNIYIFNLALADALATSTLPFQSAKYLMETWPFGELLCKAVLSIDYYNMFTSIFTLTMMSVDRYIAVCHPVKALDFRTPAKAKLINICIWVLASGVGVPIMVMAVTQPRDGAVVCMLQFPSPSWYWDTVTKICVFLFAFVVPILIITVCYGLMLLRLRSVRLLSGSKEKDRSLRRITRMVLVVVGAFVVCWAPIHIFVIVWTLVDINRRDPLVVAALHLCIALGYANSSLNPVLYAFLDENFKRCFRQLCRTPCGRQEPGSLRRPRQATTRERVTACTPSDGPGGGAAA
T2 sequence (P97266 whole entry): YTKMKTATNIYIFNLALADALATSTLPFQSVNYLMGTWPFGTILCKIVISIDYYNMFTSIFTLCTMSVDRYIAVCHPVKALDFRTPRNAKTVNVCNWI

| Molecule | IC50 (δ-opioid receptor (MVD)) [nM] | IC50 (μ-opioid receptor (GPI)) [nM] | Ki (μ-opioid receptor) [nM] | Ki (δ-opioid receptor) [nM] |
| --- | --- | --- | --- | --- |
| Cc1cc(O)cc(C)c1C[C@H](N)C(=O)N1CCC[C@H]1C(=O)N[C@@H](Cc1ccccc1)C(=O)NCCc1ccccc1 [compound 22, H-Dmt-Pro-Phe-NH-C2H4-Ph] (H-[Dmt]-Pro-Phe-NHPhenethyl) | > 10000 | 5.03 | 0.51 | 18 |
| Cc1cc(O)cc(C)c1C[C@H](N)C(=O)N1CCC[C@H]1C(=O)N[C@@H](Cc1ccccc1)C(=O)Nc1ccccn1 [compound 27, H-Dmt-Pro-Phe-NH-2-Pyr] | > 10000 | 15 | 0.13 | 157 |
| Cc1cc(O)cc(C)c1CC(N)C(=O)N1CCCC1C(=O)NC(Cc1ccccc1)C(N)=O (stereo not drawn) [compound 21, H-Dmt-Pro-Phe-NH2] (H-[Dmt]-Pro-Phe-NH2; configuration not given here) | 113 | 2.33 | 0.12 | 53.2 |
| Cc1cc(O)cc(C)c1CC(N)C(=O)NCCCCc1[nH]c(=O)c(CCCCNC(=O)C(N)Cc2c(C)cc(O)cc2C)nc1C (stereo not shown) [compound 58, 3,6-bis[Dmt-NH(CH2)4]-5-methyl-2(1H)-pyrazinone] | 41.5 | 1.9 | 0.114 | 23.2 |
| Cc1cc(O)cc(C)c1CC(N)C(=O)N1Cc2ccccc2CC1C(=O)NCCCCc1[nH]c(=O)c(CCNC(=O)C2Cc3ccccc3CN2C(=O)C(N)Cc2c(C)cc(O)cc2C)nc1C (stereo not drawn) [compound 65, 3-[Dmt-Tic-NH(CH2)2]-6-[Dmt-Tic-NH(CH2)4]-5-methyl-2(1H)-pyrazinone] | > 10000 | > 10000 | 1.37 | 0.107 |
| Cc1cc(C)cc(C[C@H](NC(=O)[C@@H]2CCCN2C(=O)[C@@H](N)Cc2c(C)cc(O)cc2C)C(=O)N[C@@H](Cc2ccccc2)C(N)=O)c1 [compound 41, H-Dmt-Pro-^3,5Dmp-Phe-NH2] | > 10000 | 14.4 | 0.11 | 11.6 |
| NC(=O)[C@H](Cc1ccccc1)NC(=O)[C@@H]1CCCN1C(=O)[C@@H](N)Cc1ccc(O)cc1 [compound 18, H-Tyr-Pro-Phe-NH2] (H-Tyr-Pro-Phe-NH2) | – | – | 46.1 | 15900 |
| H-Tmt-Pro-Phe-Phe-NH2 [compound 39] | 46.4 | 2.31 | 0.111 | 594 |
| H-Dit-Pro-Phe-Phe-NH2 [compound 38] | > 10000 | 299 | 2.29 | 105 |
| Cc1cc(O)cc(C)c1CC(N)C(=O)N1Cc2ccccc2CC1C(=O)NCCCCc1nc(C)c(CCCNC(=O)C2Cc3ccccc3CN2C(=O)C(N)Cc2c(C)cc(O)cc2C)[nH]c1=O (stereo not drawn) [compound 64, 3-[Dmt-Tic-NH(CH2)4]-6-[Dmt-Tic-NH(CH2)3]-5-methyl-2(1H)-pyrazinone] | > 10000 | > 10000 | 2.28 | 0.092 |
| CCc1cc(O)cc(C)c1C[C@H](N)C(=O)N1CCC[C@H]1C(=O)N[C@@H](Cc1ccccc1)C(=O)N[C@@H](Cc1ccccc1)C(N)=O [compound 35, H-Emt-Pro-Phe-Phe-NH2] | 1.08 | 0.623 | 0.063 | 55.7 |
| Cc1cc(O)cc(C)c1C[C@H](N)C(=O)N1CCC[C@H]1C(=O)N[C@@H](Cc1ccccc1)C(=O)Nc1cccc2cnccc12 [compound 33, H-Dmt-Pro-Phe-NH-5-Isq] | > 10000 | 0.94 | 0.19 | 98.3 |
| Cc1cc(O)cc(C)c1C[C@H](NC(=O)[C@@H]1CCCN1C(=O)[C@@H](N)Cc1c(C)cc(O)cc1C)C(=O)N[C@@H](Cc1ccccc1)C(N)=O [compound 43, H-Dmt-Pro-Dmt-Phe-NH2] (H-[Dmt]P[Dmt]F-NH2) | > 10000 | 1.94 | 0.092 | 80.8 |
| Cc1cc(O)cc(C)c1C[C@H](N)C(=O)N1CCC[C@H]1C(=O)N[C@@H](Cc1ccccc1)C(=O)Nc1cccnc1 [compound 26, H-Dmt-Pro-Phe-NH-3-Pyr] | > 10000 | 72.8 | 0.17 | 287 |
| Cc1cc(O)cc(C)c1C[C@H](N)C(=O)N1CCC[C@H]1C(=O)N[C@@H](Cc1ccccc1)C(=O)Nc1cnc2ccccc2c1 [compound 29, H-Dmt-Pro-Phe-NH-3-Qln] | > 10000 | 9.14 | 0.33 | 190 |
| Cc1cc(O)cc(C)c1C[C@H](N)C(=O)N1CCC[C@H]1C(=O)N[C@@H](Cc1ccccc1)C(=O)Nc1cccc2ncccc12 [compound 30, H-Dmt-Pro-Phe-NH-5-Qln] | 0.616 | 0.26 | 0.11 | 30 |
| CCc1cc(O)cc(CC)c1C[C@H](N)C(=O)N1CCC[C@H]1C(=O)N[C@@H](Cc1ccccc1)C(=O)N[C@@H](Cc1ccccc1)C(N)=O [compound 37, H-Det-Pro-Phe-Phe-NH2] | 47.1 | 0.903 | 0.084 | 69.7 |

| Molecule | IC50 (δ-opioid receptor (MVD)) [nM] | IC50 (μ-opioid receptor (GPI)) [nM] | Ki (μ-opioid receptor) [nM] | Ki (δ-opioid receptor) [nM] |
| --- | --- | --- | --- | --- |
| C=CCN[C@@H](Cc1c(C)cc(O)cc1C)C(=O)N1CCC[C@H]1C(=O)N[C@@H](Cc1c[nH]c2ccccc12)C(=O)N[C@@H](Cc1ccccc1)C(N)=O [compound 47, [N-allyl-Dmt^1]EM-1] | > 10000 | > 10000 | 0.26 | 10.3 |
| Cc1cc(O)cc(C)c1C[C@H](N)C(=O)NCCCCCCNC(=O)[C@@H](N)Cc1c(C)cc(O)cc1C [compound 53, Dmt-NH-(CH2)6-NH-Dmt] | > 10000 | 3.08 | 0.053 | 46.1 |
| Cc1cc(O)cc(C)c1CC(N)C(=O)N1Cc2ccccc2CC1C(=O)NCc1[nH]c(=O)c(CNC(=O)C2Cc3ccccc3CN2C(=O)C(N)Cc2c(C)cc(O)cc2C)nc1C (stereo not drawn) [compound 59, 3,6-bis[Dmt-Tic-NH-CH2]-5-methyl-2(1H)-pyrazinone] | > 10000 | > 10000 | 3.76 | 0.163 |
| NC(=O)C(Cc1ccccc1)NC(=O)C(Cc1ccccc1)NC(=O)C1CCCN1C(=O)C(N)Cc1ccc(O)cc1 [compound 12, L-D-L-L (EM-2), [D-Pro^2]EM-2] | – | – | 512 | – |
| Cc1cc(O)cc(C)c1CC(N)C(=O)NCCCc1[nH]c(=O)c(CCCNC(=O)C(N)Cc2c(C)cc(O)cc2C)nc1C (stereo not shown) [compound 57, 3,6-bis[Dmt-NH(CH2)3]-5-methyl-2(1H)-pyrazinone] | > 10000 | 1.33 | 0.042 | 13.2 |
| Cc1cc(O)cc(C)c1C[C@H](N)C(=O)N1CCC[C@H]1C(=O)N[C@@H](Cc1ccccc1)C(=O)N[C@@H](Cc1ccccc1)C(N)=O [compound 20, H-Dmt-Pro-Phe-Phe-NH2, [Dmt^1]EM-2] | 1.87 | 0.07 | 0.15 | 28.2 |
| C=CCN[C@@H](Cc1c(C)cc(O)cc1C)C(=O)N1CCC[C@H]1C(=O)N[C@@H](Cc1ccccc1)C(=O)N[C@@H](Cc1ccccc1)C(N)=O [compound 48, [N-allyl-Dmt^1]EM-2] | > 10000 | > 10000 | 0.45 | 560 |
| CCc1cccc(C)c1CC(NC(=O)C1CCCN1C(=O)C(N)Cc1c(C)cc(O)cc1C)C(=O)NC(Cc1ccccc1)C(N)=O (stereo not drawn) [compound 45, H-Dmt-Pro-Emp-Phe-NH2] | 0.51 | 0.17 | 0.21 | 3.03 |
| Cc1cc(O)cc(C)c1C[C@H](N)C(=O)N1CCC[C@H]1C(=O)N[C@@H](Cc1c(C)cccc1C(C)C)C(=O)N[C@@H](Cc1ccccc1)C(N)=O [compound 46, H-Dmt-Pro-Imp-Phe-NH2] | 5.56 | 0.2 | 0.32 | 4.61 |
| Cc1cc(O)cc(C)c1C[C@H](N)C(=O)N1CCC[C@H]1C(=O)N[C@@H](Cc1ccccc1)C(=O)Nc1cccc2cccnc12 [compound 32, H-Dmt-Pro-Phe-NH-8-Qln] | 2980 | 445 | 0.49 | 33.1 |
| Cc1cc(O)cc(C)c1CC(C(=O)N1Cc2ccccc2CC1C(=O)NCCCCCCNC(=O)C1Cc2ccccc2CN1C(=O)C(Cc1c(C)cc(O)cc1C)N(C)C)N(C)C (stereo not drawn) [compound 69, bis[N,N-dimethyl-Dmt-Tic-NH]hexane] | > 10000 | > 10000 | 2.21 | 0.06 |
| C=CCNC(Cc1c(C)cc(O)cc1C)C(=O)NCCCc1[nH]c(=O)c(CCCNC(=O)C(Cc2c(C)cc(O)cc2C)NCC=C)nc1C (stereo not shown) [compound 50, 3,6-bis[N-allyl-Dmt-NH-propyl]-5-methyl-2(1H)-pyrazinone] | > 10000 | > 10000 | 6.94 | 77.8 |
| Cc1cc(O)cc(C)c1C[C@H](N)C(=O)N1CCC[C@H]1C(=O)N[C@@H](Cc1ccccc1)C(=O)Nc1ccccc1 [compound 24, H-Dmt-Pro-Phe-NH-Ph] (H-[Dmt]-Pro-Phe-NHPh) | > 10000 | 37.7 | 1.11 | 20.6 |
| Cc1cc(O)cc(C)c1C[C@H](N)C(=O)N1CCC[C@H]1C(=O)N[C@@H](Cc1ccccc1)C(=O)Nc1cccc2ccccc12 [compound 28, H-Dmt-Pro-Phe-NH-1-Nph] | 5.47 | 0.49 | – | 19.9 |
| Cc1cc(O)cc(C)c1C[C@H](N)C(=O)N1Cc2ccccc2C[C@H]1C(=O)NCCCCCCNC(=O)[C@@H]1Cc2ccccc2CN1C(=O)[C@@H](N)Cc1c(C)cc(O)cc1C [compound 67, bis[Dmt-Tic-NH]hexane] | > 10000 | – | 1.79 | 0.129 |
| H-Dmt-Pro-Phe-NH-4-Pyr [compound 25] | > 10000 | 11.8 | – | 52.6 |
| Cc1cc(O)cc(C)c1CC(N)C(=O)NCCc1[nH]c(=O)c(CCNC(=O)C(N)Cc2c(C)cc(O)cc2C)nc1C (stereo not shown) [compound 56, 3,6-bis[Dmt-NH(CH2)2]-5-methyl-2(1H)-pyrazinone] | > 10000 | 12.9 | – | 7.26 |
